“Also recorded” adds a separate entry of the source. No end group written: not given here. mPEG‑maleimide = methoxy-PEG maleimide (couples to the cysteine thiol)
What was measured:
[1] = tested on: primary preadipocytes from IGFBP-2−/− mice; assay: Differentiation of primary preadipocytes (immunoblot of adiponectin, aP2, PPARγ; Oil Red O staining); type: cell-based, mouse; settings: for effect on differentiation marker expression / preadipocyte differentiation (in words): peptides 6 μg/ml, IGFBP-2 proteins 3 μg/ml, IGF-I 100 ng/ml, in differentiation medium; for % suppression of adiponectin: mean±SE, N=3; for relative potency as inhibitor of adipogenesis / preadipocyte differentiation (in words): comparison between peptides and proteins, immunoblot and Oil Red O
Method: Primary preadipocytes were isolated from epididymal fat pads of 6 week old IGFBP-2^−/− mice. The cells were cultured using a previously described method (Boney, C M et al., 1994). The fat pads were weighed and the tissue was digested with an equal volume (W/V) of collagenase type A (Roche Applied Science, Indianapolis, Ind.) in HEPES buffer (0.1M and 1.5% BSA) for 45 min at 37° C. Following complete digestion, the preadipocytes were separated from the stromal vascular cells by centrifugation at 500×g for 5 min. The pelleted cells were washed with DMEM containing 30 mM glucose (Gibco, Grand Island, N.Y.) and passed through a 100 μm mesh filter (BD Biosciences, Bedford, Mass.). The cells were then plated in 6-well plates (Falcon Corp., Franklin Lakes, N.J.) at a density of 1.2-1.5×10^4 cells/ml in DMEM containing 30 mM glucose supplemented with penicillin (100 U/ml), streptomycin (100 μg/ml), and 10% fetal bovine serum hereafter referred to as standard medium. The cultures had the medium changed every 2 days until they reached confluency. Two day post-confluent cells were then exposed to differentiation medium (serum free DMEM containing 0.5 mM IBMX, 1 μM dexamethasone, and 5 μg/mL insulin) and incubated for 2 days. Experimental treatments that were added to this medium included either wild type IGFBP-2 (3 μg/ml), HBD1 peptide (6 μg/ml), HBD1 control peptide (6 μg/ml), HBD2 peptide (6 μg/ml), HBD2 control peptide (6 μg/ml), HBD1 mutant IGFBP-2 (3 μg/ml) or the HBD2 mutant IGFBP-2 (3 μg/ml). Cultures were maintained for two additional days in the standard medium supplemented with 5 μg/ml insulin. Thereafter, the cultures were kept in the fresh standard medium without insulin for additional two days.
After treatment, the cells were rinsed with PBS for two times and fixed with 10% formalin for 30 min at room temperature. After rinsing with distilled water for twice, 100% propylene glycol (Poly Scientific, Bay Shore, N.Y.) was added and incubated for 5 min. Before adding Oil Red O solution (Poly Scientific, Bay Shore, N.Y.), propylene glycol was removed. The cultures were incubated for 10 min at 60° C. Removing Oil Red O solution, the cultures were incubated with 80% propylene glycol for 5 min, After incubation, the cultures were rinsed with tap water twice. Images were captured using an Olympus IX81 inverted microscope.
Differentiated adipocytes were lysed in ice-cold lysis buffer (Xi et al., 2008). After centrifugation at 14,000×g for 10 min, solubilized proteins were quantified by the Bradford method (Thermo Scientific, Rockford, Ill.). Equal protein amounts of lysates were loaded onto a SDS-polyacrylamide gel and the proteins were separated, then transferred to an Immobilon filter and visualized by immunoblotting using the appropriate antibody. The primary antibody dilutions that were used were 1:1000 for the anti-adiponectin antibody (Affinity BioReagents, Golden, Colo.), 1:500 for the anti-PPARγ antibody (Cell Signaling Technology Inc., Beverly, Mass.), 1:2000 for the anti-apt antibody (ProSci Inc., Poway, Calif.) and 1:5000 for the anti-β-actin antibody (Sigma Chemical Company, St. Louis, Mo.). The immune complexes were visualized using enhanced chemiluminescence (Thermo Fischer Scientific, Rockford, Ill.).
Preadipocytes were prepared from mice and grown in culture as described herein. The respective mouse and human peptides were added to cells and the cells were lysed and the lysates were run on SDS gels as described. Immunoblotting for adiponectin was carried as described. Three concentrations of each peptide, 0.7, 2.0 and 6.0 μg/ml, were compared. The results were expressed as % suppression mean±SE(N=3) and were as follows.
Cell culture of primary preadipocytes. Preadipocytes were isolated from epididymal fat pads of IGFBP-2^−/− mice. The cultures had the medium changed every 2 days until they reached confluency. […]

[2] = tested on: ovariectomized IGFBP-2 −/− mice; assay: Body composition MRI analysis in ovariectomized IGFBP-2 knockout mice; type: in vivo, mouse; settings: IGFBP-2 −/− OVX mice, 2.5 mg/kg sc two days per week for four weeks; for Fat: 2.5 mg/kg
Method: (§1) There were 8 mice in each treatment group. C57B6 normal mice underwent ovaryectomy at age 8 weeks. They were then maintained on a normal Chow diet (6% fat) for three weeks. At that time they were treated with 2.5 mg/kg of the active peptide injected subcutaneously two days per week for four weeks. The peptide is the pegylated HBD-2 peptide described herein,
(§2) A second treatment group that had also undergone ovariectomy was treated with the identical concentration of a control peptide that contained the same amino acids but in a scrambled order. A third group underwent sham surgery wherein an incision was made and then closed and the ovaries were not removed. For comparison the response of mice that had had the IGF BP-2 gene deleted were treated in the same manner.
(§3) Eight mice underwent and were treated with the active peptide for four weeks as described for the normal animals. Eight additional mice received the control peptide and eight mice received the sham procedure. The animals were weighed weekly. After 4 weeks they underwent MRI analysis to determine body composition. Both lean mass and fat mass were quantified and the percent fat as a percent total body weight was determined mathematically.

[3] = tested on: ovariectomized C57B6 normal mice (IGFBP-2 +/+); assay: Body composition MRI analysis in ovariectomized genetically normal mice; type: in vivo, mouse; settings: for Fat / Body weight: 2.5 mg/kg
Method: Experiments were conducted in which the HBD-2 peptide was administered to genetically normal, ovariectomized mice to determine if it would induce fat loss. The purpose of this experiment was to determine if the peptide could alter fat mass in ovariectomized mice. Estrogen deficient mice are known to gain fat mass following removal of the ovaries. Since the peptide had not been tested in an animal model that had not been genetically manipulated and since it had not been tested in a condition wherein fat mass had been acquired previously to determine if it could reduce pre-existing fat mass this experiment was undertaken. The experimental design was as follows.
as §1, §2, §3

[4] = tested on: IGFBP-2−/− mice; assay: Body composition (fat and lean mass) by EchoMRI at weeks 0 and 12; type: in vivo, mouse; settings: weeks 0 to 12; pegylated peptide 50 μg IP 3 times/week; mean±SE
Method: (§4) Body fat and lean muscle mass was measured at weeks 0 and 12 of treatment by magnetic resonance imaging analysis (EchoMRI-100, Echo Medical Systems, Houston, Tex.), a technique that measures fat mass and lean mass in unanesthetized animals (Kelly S A, et. al., 2010). After completion of 12 weeks of treatment, the mice were sacrificed. Blood was collected by cardiac puncture and allowed to sit for 4 hours before centrifuging at 3500 rpm×15 min. The serum was aspirated and stored at −20° C. until analysis. Abdominal inguinal and visceral fat pads were carefully dissected from each animal according to defined anatomical landmarks. All subcutaneous fat between the lower part of the rib cage and the upper thigh was considered abdominal subcutaneous inguinal fat, whereas all fat found along the mesentery starting at the lesser curvature of the stomach and ending at the sigmoid colon was considered visceral fat. Fat depots were blotted dry prior to weighing. The right inguinal fat pad was dissected separately and the triglyceride content of this tissue was determined by a colorimetric analysis (Pointe Scientific, Canton, Mich.), as previously described (Dann H, Kimura S 1992). Serum adiponectin and leptin were measured by ELISA following manufacturer's instructions (Millipore, Billerica, Mass.).
(§5) Body composition and serum adipokine measurement. Body fat and lean mass were measured at weeks 0 and 12 of treatment by magnetic resonance imaging analysis (EchoMRI-100, Echo Medical Systems, Houston, Tex.), using unanesthetized animals. After 12 weeks of treatment, the mice were sacrificed and blood was collected by cardiac puncture and centrifuged at 3500 rpm×15 min. The serum was stored at −20° C. Abdominal inguinal and visceral fat pads were dissected from each animal according to defined anatomical landmarks. Subcutaneous fat between the rib cage and the upper thigh was termed subcutaneous inguinal fat, whereas all fat from the lesser curvature of the stomach to the sigmoid colon was termed visceral fat. Fat depots were blotted dry prior to weighing. The right inguinal fat pad was dissected separately and the triglyceride content of this tissue was determined by a calorimetric analysis (Pointe Scientific, Canton, Mich. Serum adiponectin and leptin were measured by ELISA following manufacturer's instructions (Millipore, Billerica, Mass.).

[5] = tested on: IGFBP-2−/− mice; assay: Inguinal and visceral fat pad, liver and heart weights at sacrifice; type: in vivo, mouse; settings: after 12 weeks; pegylated peptide 50 μg IP 3 times/week; mean±SE
Method: as §4, §5

[6] = IGFBP-2 +/+ OVX mice, 2.5 mg/kg sc two days per week for four weeks, MRI

For “IGF-I: insulin-like growth factor-I added at 100 ng/ml to differentiation medium [reference compound]”, the “effect on differentiation marker expression / preadipocyte differentiation (in words)” value [1] was “no additional effect on cell differentiation”.

In the case of “CKPLRLSKEEHPLK [HBD1 control peptide, scrambled HBD1 peptide, reference compound]”, the “effect on differentiation marker expression / preadipocyte differentiation (in words)” value [1] is reported as “had no effect”.

Molecule “Peg HBD2: HBD2 peptide with added cysteine (CKHGLYNLKQCKMSLNGQR), pegylated with methoxy PEG maleimide (C(mPEG‑maleimide)KHGLYNLKQCKMSLNGQR)” has a Body weight [2] of 21.95 ± 0.8 g, a Fat % ([2]; MRI) of 18.75 ± 1.0% and a Lean ([2]; MRI) of 16.97 ± 0.4 g. For the same molecule, the Total ([2]; MRI) was 20.90 ± 0.8 g, the Fat ([2]; MRI) was 3.85 g and the Fat ([2]; MRI, listed as HBD(pept)) was 3.85 ± 0.4 g. It also gave a Fat % [3, 6] of 19.42 ± 1.1%, a Lean [3, 6] of 17.40 ± 0.3 g and a Total [3, 6] of 21.65 ± 0.6 g. The Fat ([3]; IGFBP-2 +/+ OVX mice, 2.5 mg/kg sc two days per week for four weeks, MRI, listed as HBD) was 4.0 ± 0.4 g, the Fat ([3]; IGFBP-2 +/+ OVX mice, 2.5 mg/kg sc two days per week for four weeks, MRI, listed as active peptide) was 4.0 g and the Body weight ([3]; IGFBP-2 +/+ OVX mice, 2.5 mg/kg sc two days per week for four weeks, listed as HBD) was 23.0 ± 0.8 g. The Body weight ([3]; IGFBP-2 +/+ OVX mice, 2.5 mg/kg sc two days per week for four weeks, listed as active peptide) was 23.0 g, the “body weight and total fat mass (in words)” value ([3]; OVX mice, after four weeks of treatment) was “significantly decreased” and the Fat mass increase [4] was 0.58 ± 0.12 g. For the same molecule, the Lean mass increase [4] was 3.10 ± 0.57 g, the Inguinal fat [5] was 0.23 ± 0.02 g and the Visceral fat [5] was 0.25 ± 0.02 g.

For “KHGRYNLKQCKMSLNGQR [Mouse, mouse IGFBP-2 HBD2 peptide]”, the “% suppression of adiponectin” value ([1]; 0.7 μg/ml peptide) was 51.2 ± 8.1%, the “% suppression of adiponectin” value ([1]; 2.0 μg/ml peptide) was 85.6 ± 11.4% and the “% suppression of adiponectin” value ([1]; 6.0 μg/ml peptide) was 95.5 ± 9.9%. The “relative potency as inhibitor of adipogenesis / preadipocyte differentiation (in words)” value [1] was “equipotent”.

“RKGFYKRKQCKPSRGRKR [HBD2 control peptide, reference compound]” was tested, and the “effect on differentiation marker expression / preadipocyte differentiation (in words)” value [1] was “did not affect their expression; also recorded: did not alter their expression”.

B1: native IGFBP-2: native (wild type) insulin-like growth factor binding protein-2; FIG. 2 legend says wild type bovine IGFBP-2 (protein, UniProt P13384 34-317, looked up)
Insulin-like growth …: EVLFRCPPCTPESLAACKPPPGAAAGPAGDARVPCELVREPGCGCCSVCARLEGERCGVYTPRCGQGLRCYPNPGSELPLRALVHGEGTCEKHGDAEYSASPEQVADNGEEHSEGGLVENHVDGNVNLMGGGGGAGRKPLKSGMKELAVFREKVTEQHRQMGKGGKHHLGLEEPKKLRPPPARTPCQQELDQVLERISTMRLPDERGPLEHLYSLHIPNCDKHGLYNLKQCKMSLNGQRGECWCVNPNTGKLIQGAPTIRGDPECHLFYNEQQGARGVHTQRMQ
With B1 the “relative potency as inhibitor of adipogenesis / preadipocyte differentiation (in words)” value [1] was “most potent inhibitors of adipogenesis” and the “effect on differentiation marker expression / preadipocyte differentiation (in words)” value [1] was “inhibited preadipocyte differentiation into mature adipocytes”.

From patent US20160039897A1, “COMPOUNDS AND METHODS FOR TREATING OBESITY AND CONTROLLING WEIGHT” (THE UNIVERSITY OF NORTH CAROLINA AT CHAPEL HILL, priority 2013, published 2016)
